Biological target: T1, M1 muscarinic receptor (Homo sapiens, UniProt P11229)
T1 sequence (P11229 1-460): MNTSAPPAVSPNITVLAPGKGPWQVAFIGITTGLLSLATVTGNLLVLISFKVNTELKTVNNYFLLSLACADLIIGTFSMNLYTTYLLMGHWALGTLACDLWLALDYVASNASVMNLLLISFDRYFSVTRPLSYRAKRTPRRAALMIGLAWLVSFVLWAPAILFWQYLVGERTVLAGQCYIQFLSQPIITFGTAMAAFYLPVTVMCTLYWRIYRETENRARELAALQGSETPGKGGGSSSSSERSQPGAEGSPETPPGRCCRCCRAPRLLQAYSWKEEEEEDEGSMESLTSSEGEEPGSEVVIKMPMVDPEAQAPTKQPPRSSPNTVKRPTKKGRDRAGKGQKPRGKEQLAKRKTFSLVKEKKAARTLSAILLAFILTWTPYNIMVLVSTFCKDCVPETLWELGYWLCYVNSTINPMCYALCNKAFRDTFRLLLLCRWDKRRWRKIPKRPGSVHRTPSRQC
Assay: inhibition of forskolin-stimulated cAMP, M1 CHO cells (M1Gi)
Assay type: cell-based
Set-up: host or cells: CHO cells, stably transfected
Details: for Emax: CHO; for Emax / EC50 / τ / RAi / Kd: M1Gi (↓cAMP); for Emax / EC50 / τ / Kd: Table 8; for effect on forskolin-stimulated production of cAMP: M1, non-preferential response, in words; for RAi: Table 8, relative to carbachol; for Kd: read-out: pKA (converted)
Description: Since activation of phospholipase C (PLC) via M2 and M4 receptors is weak, cells were transferred with G15 G-protein to facilitate coupling.
To determine level of cAMP, cells in suspension were pre-incubated for 1 h with 0.4 μM [^3H]adenine, washed, and incubated for 10 min in the presence of isobutylmethylxanthine and 10 μM forskolin. […] Incubation was ended by addition of 0.2 ml of 2.5 M HCl to the samples. Samples were applied to alumina columns (1.5 g of alumina per column), washed with 2 ml ammonium acetate (pH=7.0) and eluted from columns with 4 ml ammonium acetate and measured by liquid scintillation spectrometry. […] The incubation was stopped by addition of 0.5 ml of chloroform methanol HCl mixture (2:1:0.1). After separation of water and organic phases, 0.6 ml of water phase was applied to Dowex columns (1.5 g of Dowex per column), washed by 20 ml of 60 mM ammonium formate/5 mM sodium borate buffer and eluted from columns with 4 ml of 1M ammonium formate/0.1 formic acid buffer and measured by liquid scintillation spectrometry.
Measurements of the production of cAMP and inositol phosphates: Levels of second messengers cAMP and inositol phosphates were determined in radiochemical chromatography assays as described previously. To determine level of cAMP, cells in suspension were pre-incubated for 1 h with 0.4 μM [^3H]adenine, washed, and incubated for 10 min in the presence of isobutylmethylxanthine and 10 μM forskolin. […] Incubation was ended by addition of 0.2 ml of 2.5 M HCl to the samples. Samples were applied to alumina columns (1.5 g of alumina per column), washed with 2 ml ammonium acetate (pH=7.0) and eluted from columns with 4 ml ammonium acetate and measured by liquid scintillation spectrometry. […] For this purpose, new CHO cell lines stably expressing promiscuous G15 G-protein and M2 or M4 receptor were generated by transfection with pCMV/hygro vector and hygromycin selection. To determine the rate of formation of inositol phosphates IPX, suspended cells were pre-incubated with 0.1 μM [^3H]myo-inositol for 60 min, washed, and incubated with 10 mM LiCl for 15 min. […] The incubation was stopped by addition of 0.5 ml of chloroform methanol HCl mixture (2:1:0.1). After separation of water and organic phases, 0.6 ml of water phase was applied to Dowex columns (1.5 g of Dowex per column), washed by 20 ml of 60 mM ammonium formate/5 mM sodium borate buffer and eluted from columns with 4 ml of 1M ammonium formate/0.1 formic acid buffer and measured by liquid scintillation spectrometry.
For bi-phasic response, curves were inhibitory and stimulatory phase were fitted separately. Operational Model of Functional Agonism
[formula] where y is functional response at concentration of tested compound x, EMAX is maximal response of the system, KA is equilibrium dissociation constant and nH is slope factor. Eq. 5 was fitted to data from functional experiments. Eq. 5 was fitted to data by the two-step procedure described earlier. […] In the second step, Eq. 5 with EMAX fixed to the value determined in the first step was fitted to individual experimental data sets. Relative Intrinsic Activity
Muscarinic receptors are also able to stimulate non-preferential signalling pathways.

**Q.** What does the source list for `C[N+]1(Cc2cccs2)CC=CCC1.[I-]` (stereo not drawn) [Compound 7A, 1-methyl-1-[(thiophen-2-yl)methyl]-1,2,3,6-tetrahydropyridin-1-ium iodide]?
**A.** Emax: 30 ± 3%; effect on forskolin-stimulated production of cAMP: inhibited cAMP production; EC50: 7.94 µM; τ: 0.52 ± 0.05; RAi: +inf.; Kd: 12.6 µM

**Q.** For `C1=CCN(Cc2cccs2)CC1.Cl` [Compound 6A, 1-[(thiophen-2-yl)methyl]-1,2,3,6-tetrahydropyridin-1-ium chloride], which Emax is on record?
**A.** The Emax was 26 ± 2%.

**Q.** What about the “effect on forskolin-stimulated production of cAMP” value of the same compound?
**A.** The value was “inhibited cAMP production”.

**Q.** And the EC50?
**A.** The EC50 was 11.7 µM.

**Q.** What about the τ of the same compound?
**A.** Its τ is 0.42 ± 0.04.

**Q.** What about the RAi of the same compound?
**A.** Its RAi is “+inf”.

**Q.** And the Kd?
**A.** The Kd was 15.8 µM.
